Source: patent publication US20260250272A1, “N-SUBSTITUTED QUINOLINONE COMPOUND, PREPARATION METHOD THEREFOR AND USE THEREOF” (VIGONVITA LIFE SCIENCES CO., LTD., priority 2022, published 2026)
In brackets after ≈: the same amount, converted by molar mass.

Assay: Oil solubility test in benzyl benzoate (HPLC)
Type: physicochemical
Conditions: organic solvent or mixture, thermodynamic from solid, 25° C., shaken 2 h
Experimental: The solubility test was performed by quantitative analysis using an external standard method of high-performance liquid chromatography.
Reference sample solution: 10 mg of reference sample was weighed, placed in a 20 mL volumetric flask, diluted to the scale with 80% acetonitrile, and shaken uniformly.
Test sample solution: an appropriate amount of sample was dissolved in benzyl benzoate to obtain a saturated solution. The mixture was placed in a shaker and shaken at 25° C. and 800 rpm for 2 h. The sample solution was filtered, and 100 μL of filtrate was added to a 10 mL volumetric flask, diluted to the scale with 80% acetonitrile, and shaken uniformly.

SMILES	solubility at 2 h
CC(C)OC(=O)N1C(=O)CCc2ccc(CCN3CCN(c4cc(F)cc5sccc45)CC3)cc21 [Compound 4]	25.8 mg/mL (≈ 52 mM)
CCCCCCCCCCCCCCCC(=O)OCn1c(=O)ccc2ccc(CCN3CCN(c4cc(F)cc5sccc45)CC3)cc21 [Compound 9, (7-(2-(4-(6-Fluorobenzo[b]thiophen-4-yl)piperazin-1-yl)ethyl)-2-oxoquinolin-1(2H)-yl)methyl palmitate]	> 200 mg/mL
CCCCCCCCCC(=O)OCn1c(=O)ccc2ccc(CCN3CCN(c4cc(F)cc5sccc45)CC3)cc21 [Compound 10, (7-(2-(4-(6-Fluorobenzo[b]thiophen-4-yl)piperazin-1-yl)ethyl)-2-oxoquinolin-1(2H)-yl)methyl decanoate]	> 200 mg/mL
CCCCCCCCCCCC(=O)OC(C)N1C(=O)CCc2ccc(CCN3CCN(c4cc(F)cc5sccc45)CC3)cc21 (centres unmarked) [Compound 13, 1-(7-(2-(4-(6-Fluorobenzo[b]thiophen-4-yl)piperazin-1-yl)ethyl)-2-oxo-3,4-dihydroquinolin-1(2H)-yl)ethyl dodecanoate]	> 200 mg/mL
CCCCCCCCCCCOC(=O)OCN1C(=O)CCc2ccc(CCN3CCN(c4cc(F)cc5sccc45)CC3)cc21 [Compound 14, (7-(2-(4-(6-Fluorobenzo[b]thiophen-4-yl)piperazin-1-yl)ethyl)-2-oxo-3,4-dihydroquinolin-1(2H)-yl) methyl undecyl carbonate]	> 200 mg/mL
CCCCCCCCCCCCCCCC(=O)OC(C)N1C(=O)CCc2ccc(CCN3CCN(c4cc(F)cc5sccc45)CC3)cc21 (centres unmarked) [Compound 15, 1-(7-(2-(4-(6-Fluorobenzo[b]thiophen-4-yl)piperazin-1-yl)ethyl)-2-oxo-3,4-dihydroquinolin-1(2H)-yl) ethyl palmitate]	> 200 mg/mL
CCCCCCCOC(=O)OCN1C(=O)CCc2ccc(CCN3CCN(c4cc(F)cc5sccc45)CC3)cc21 [Compound 25, (7-(2-(4-(6-Fluorobenzo[b]thiophen-4-yl)piperazin-1-yl)ethyl)-2-oxo-3,4-dihydroquinolin-1(2H)-yl) methyl heptyl carbonate]	> 200 mg/mL
CCCCCCCCOC(=O)OCN1C(=O)CCc2ccc(CCN3CCN(c4cc(F)cc5sccc45)CC3)cc21 [Compound 26, (7-(2-(4-(6-Fluorobenzo[b]thiophen-4-yl)piperazin-1-yl)ethyl)-2-oxo-3,4-dihydroquinolin-1(2H)-yl) methyl octyl carbonate]	> 200 mg/mL
CCCCCCCCCOC(=O)OCN1C(=O)CCc2ccc(CCN3CCN(c4cc(F)cc5sccc45)CC3)cc21 [Compound 27, (7-(2-(4-(6-Fluorobenzo[b]thiophen-4-yl)piperazin-1-yl)ethyl)-2-oxo-3,4-dihydroquinolin-1(2H)-yl) methyl nonyl carbonate]	> 200 mg/mL
CCCCCCCCCCOC(=O)OCN1C(=O)CCc2ccc(CCN3CCN(c4cc(F)cc5sccc45)CC3)cc21 [Compound 28, Decyl ((7-(2-(4-(6-fluorobenzo[b]thiophen-4-yl)piperazin-1-yl)ethyl)-2-oxo-3,4-dihydroquinolin-1(2H)-yl)methyl) carbonate]	> 200 mg/mL
CCCCCCCCCCCCOC(=O)OCN1C(=O)CCc2ccc(CCN3CCN(c4cc(F)cc5sccc45)CC3)cc21 [Compound 29, Dodecyl ((7-(2-(4-(6-fluorobenzo[b]thiophen-4-yl)piperazin-1-yl)ethyl)-2-oxo-3,4-dihydroquinolin-1(2H)-yl)methyl) carbonate]	> 200 mg/mL
CCCCCCCCCCCCCCOC(=O)OCN1C(=O)CCc2ccc(CCN3CCN(c4cc(F)cc5sccc45)CC3)cc21 [Compound 30, (7-(2-(4-(6-Fluorobenzo[b]thiophen-4-yl)piperazin-1-yl)ethyl)-2-oxo-3,4-dihydroquinolin-1(2H)-yl) methyl tetradecyl carbonate]	> 200 mg/mL
CCCCCCCCCCCCCCCCOC(=O)OCN1C(=O)CCc2ccc(CCN3CCN(c4cc(F)cc5sccc45)CC3)cc21 [Compound 31, (7-(2-(4-(6-Fluorobenzo[b]thiophen-4-yl)piperazin-1-yl)ethyl)-2-oxo-3,4-dihydroquinolin-1(2H)-yl)methyl hexadecyl carbonate]	> 200 mg/mL
CCCCCCCCCCCC(=O)OCn1c(=O)cc(F)c2ccc(CCN3CCN(c4cc(F)cc5sccc45)CC3)cc21 [Compound 38, (4-Fluoro-7-(2-(4-(6-fluorobenzo[b]thiophen-4-yl)piperazin-1-yl)ethyl)-2-oxoquinolin-1(2H)-yl)methyl dodecanoate]	> 200 mg/mL
CCCCCCCCCCCC(=O)OCN1C(=O)CC(C)(C)c2ccc(CCN3CCN(c4cc(F)cc5sccc45)CC3)cc21 [Compound 43, (7-(2-(4-(6-Fluorobenzo[b]thiophen-4-yl)piperazin-1-yl)ethyl)-4,4-dimethyl-2-oxo-3,4-dihydroquinolin-1(2H)-yl)methyl dodecanoate]	> 200 mg/mL
[2H]c1cc(=O)n(COC(=O)CCCCCCCCCCC)c2cc(CCN3CCN(c4cc(F)cc5sccc45)CC3)ccc12 [Compound 51, (7-(2-(4-(6-Fluorobenzo[b]thiophen-4-yl)piperazin-1-yl)ethyl)-2-oxoquinolin-1(2H)-yl-4-d)methyl dodecanoate]	> 200 mg/mL
CCCCCCCC(=O)OCN1C(=O)CCc2ccc(CCN3CCN(c4cc(F)cc5sccc45)CC3)cc21 [Compound 61, (7-(2-(4-(6-Fluorobenzo[b]thiophen-4-yl)piperazin-1-yl)ethyl)-2-oxo-3,4-dihydroquinolin-1(2H)-yl) methyl octanoate]	> 200 mg/mL
CCCCCCCCC(=O)OCN1C(=O)CCc2ccc(CCN3CCN(c4cc(F)cc5sccc45)CC3)cc21 [Compound 62, (7-(2-(4-(6-Fluorobenzo[b]thiophen-4-yl)piperazin-1-yl)ethyl)-2-oxo-3,4-dihydroquinolin-1(2H)-yl) methyl nonanoate]	> 200 mg/mL
CCCCCCCCCCC(=O)OCN1C(=O)CCc2ccc(CCN3CCN(c4cc(F)cc5sccc45)CC3)cc21 [Compound 63, (7-(2-(4-(6-Fluorobenzo[b]thiophen-4-yl)piperazin-1-yl)ethyl)-2-oxo-3,4-dihydroquinolin-1(2H)-yl) methyl undecanoate]	> 200 mg/mL
CCCCCCCCCCCCC(=O)OCN1C(=O)CCc2ccc(CCN3CCN(c4cc(F)cc5sccc45)CC3)cc21 [Compound 64, (7-(2-(4-(6-Fluorobenzo[b]thiophen-4-yl)piperazin-1-yl)ethyl)-2-oxo-3,4-dihydroquinolin-1(2H)-yl) methyl tridecanoate]	> 200 mg/mL
CCCCCCCCCCCCCC(=O)OCN1C(=O)CCc2ccc(CCN3CCN(c4cc(F)cc5sccc45)CC3)cc21 [Compound 65, (7-(2-(4-(6-Fluorobenzo[b]thiophen-4-yl)piperazin-1-yl)ethyl)-2-oxo-3,4-dihydroquinolin-1(2H)-yl) methyl tetradecanoate]	> 200 mg/mL
CCCCCCCCCCCCCCC(=O)OCN1C(=O)CCc2ccc(CCN3CCN(c4cc(F)cc5sccc45)CC3)cc21 [Compound 66, (7-(2-(4-(6-Fluorobenzo[b]thiophen-4-yl)piperazin-1-yl)ethyl)-2-oxo-3,4-dihydroquinolin-1(2H)-yl) methyl pentadecanoate]	> 200 mg/mL
CCCCCCCCCCCCCCCCC(=O)OCN1C(=O)CCc2ccc(CCN3CCN(c4cc(F)cc5sccc45)CC3)cc21 [Compound 67, (7-(2-(4-(6-Fluorobenzo[b]thiophen-4-yl)piperazin-1-yl)ethyl)-2-oxo-3,4-dihydroquinolin-1(2H)-yl) methyl heptadecanoate]	> 200 mg/mL
